Assay: Michaelis-Menten constant was determined against Hepatitis C virus NS3 protease and represented as Km

CCCN(NC(=O)[C@H]1CCCN1C(=O)[C@@H](NC(=O)[C@@H](NC(=O)[C@H](CC(=O)O)NC(=O)[C@H](CCC(=O)O)NC(=O)[C@@H](NC(C)=O)[C@@H](C)O)C(C)C)C(C)C)C(=O)Oc1ccc([N+](=O)[O-])cc1 [Azapeptide]
Ki: 8 µM

Source: BindingDB's records for doi:10.1016/s0960-894x(02)00102-6 (Schering-Plough Research Institute, 2002)
